Laboratory results reported in patent publication US20220033397A1, “PHARMACEUTICAL COMPOUNDS AND THEIR USE AS INHIBITORS OF UBIQUITIN SPECIFIC PROTEASE 19 (USP19)” (ALMAC DISCOVERY LIMITED, priority 2018, published 2022).

target: T1, Full-length USP19 (Homo sapiens, UniProt O94966); assay: USP19 fluorescence polarisation (FP) homogeneous assay with Ubiquitin-Lys-TAMRA substrate; format: biochemical; details: 2.5 nM USP19, 30 min pre-incubation, average of at least two duplicate experiments
T1 construct: Full-length USP19 was purchased from Boston Biochem (E-576); purchased Boston Biochem E-576
T1 sequence (O94966 1-1318): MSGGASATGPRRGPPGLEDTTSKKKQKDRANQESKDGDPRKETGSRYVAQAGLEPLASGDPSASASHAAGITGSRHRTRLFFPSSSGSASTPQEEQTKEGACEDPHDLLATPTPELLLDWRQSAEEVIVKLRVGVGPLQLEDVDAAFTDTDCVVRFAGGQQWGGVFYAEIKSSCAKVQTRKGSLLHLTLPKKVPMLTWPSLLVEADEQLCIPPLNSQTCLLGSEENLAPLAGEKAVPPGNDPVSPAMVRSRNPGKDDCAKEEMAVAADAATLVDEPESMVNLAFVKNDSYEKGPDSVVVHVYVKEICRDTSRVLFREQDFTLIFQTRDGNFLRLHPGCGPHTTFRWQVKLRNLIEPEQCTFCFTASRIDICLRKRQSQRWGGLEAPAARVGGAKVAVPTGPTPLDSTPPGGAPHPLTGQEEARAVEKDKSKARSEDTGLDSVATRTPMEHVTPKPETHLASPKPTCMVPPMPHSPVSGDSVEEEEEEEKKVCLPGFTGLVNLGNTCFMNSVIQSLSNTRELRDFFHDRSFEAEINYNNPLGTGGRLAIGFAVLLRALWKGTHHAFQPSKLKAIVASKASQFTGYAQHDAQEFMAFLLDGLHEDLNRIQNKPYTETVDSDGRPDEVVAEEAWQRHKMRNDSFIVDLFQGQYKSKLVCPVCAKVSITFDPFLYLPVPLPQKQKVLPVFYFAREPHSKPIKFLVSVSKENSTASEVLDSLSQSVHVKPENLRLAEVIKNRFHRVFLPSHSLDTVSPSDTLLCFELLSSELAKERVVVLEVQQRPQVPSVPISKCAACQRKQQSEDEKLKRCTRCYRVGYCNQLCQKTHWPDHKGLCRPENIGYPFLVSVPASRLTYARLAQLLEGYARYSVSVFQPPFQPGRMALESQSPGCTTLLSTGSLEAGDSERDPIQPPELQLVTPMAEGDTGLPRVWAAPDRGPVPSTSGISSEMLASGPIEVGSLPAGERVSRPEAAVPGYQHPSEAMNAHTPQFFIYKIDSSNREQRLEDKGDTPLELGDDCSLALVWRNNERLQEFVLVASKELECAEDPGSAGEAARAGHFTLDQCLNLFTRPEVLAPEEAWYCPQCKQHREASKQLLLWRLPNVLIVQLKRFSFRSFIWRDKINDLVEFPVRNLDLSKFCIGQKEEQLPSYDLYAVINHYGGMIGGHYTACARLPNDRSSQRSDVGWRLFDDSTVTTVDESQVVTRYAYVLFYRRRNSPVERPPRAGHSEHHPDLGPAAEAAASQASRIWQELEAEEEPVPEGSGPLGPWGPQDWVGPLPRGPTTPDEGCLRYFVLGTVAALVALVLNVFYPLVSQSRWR
Summary of the method: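 Full-length USP19 preincubated 30 min at RT with inhibitor (200 μM to 2 μM series, 8–18 points) before adding 500 nM Ubiquitin-Lys-TAMRA substrate.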

SMILES	IC50 [µM]
CN(Cc1ccccc1)C(=O)N1CCC(O)(Cn2cnc(-c3ccccc3F)cc2=O)CC1 [Example 81, N-Benzyl-4-((4-(2-fluorophenyl)-6-oxopyrimidin-1(6H)-yl)methyl)-4-hydroxy-N-methylpiperidine-1-carboxamide]	50 to 250
CN(C)C(=O)c1cn(CC2(O)CCN(C(=O)Oc3ccc([N+](=O)[O-])cc3)CC23CCCC3)c(=O)cc1-c1ccccc1 (centres unmarked) [Example 83, 4-Nitrophenyl 10-((5-(dimethylcarbamoyl)-2-oxo-4-phenylpyridin-1(2H)-yl)methyl)-10-hydroxy-7-azaspiro[4.5]decane-7-carboxylate]	50 to 250
CN(C)C(=O)c1cn(CC2(O)CCN(C(=O)NCc3ccccc3)CC23CCCC3)c(=O)cc1-c1ccccc1 (centres unmarked) [Example 85, N-Benzyl-10-((5-(dimethylcarbamoyl)-2-oxo-4-phenylpyridin-1(2H)-yl)methyl)-10-hydroxy-7-azaspiro[4.5]decane-7-carboxamide]	< 0.5
O=C(N1CCC(O)(Cn2ccncc2=O)C2(CCCC2)C1)N1CCOC[C@H]1c1ccccc1 (stereo partly drawn) [Example 90, 1-((10-Hydroxy-7-((R)-3-phenylmorpholine-4-carbonyl)-7-azaspiro[4.5]decan-10-yl)methyl)pyrazin-2(1H)-one]	0.5 to 5
O=C(N1CCC(O)(Cn2ccncc2=O)C2(CCCC2)C1)N1CCNC[C@H]1c1ccccc1 (stereo partly drawn) [Example 91, 1-((10-Hydroxy-7-((R)-2-phenylpiperazine-1-carbonyl)-7-azaspiro[4.5]decan-10-yl)methyl)pyrazin-2(1H)-one]	0.5 to 5
Cc1cn(CC2(O)CCN(C(=O)N3CCNC[C@H]3c3ccccc3)CC23CCCC3)c(=O)cn1 (stereo partly drawn) [Example 92, 1-((10-Hydroxy-7-((R)-2-phenylpiperazine-1-carbonyl)-7-azaspiro[4.5]decan-10-yl)methyl)-5-methylpyrazin-2(1H)-one]	< 0.5
Cc1nccn(CC2(O)CCN(C(=O)N3CCNC[C@H]3c3ccccc3)CC23CCCC3)c1=O (stereo partly drawn) [Example 93, 1-((10-Hydroxy-7-((R)-2-phenylpiperazine-1-carbonyl)-7-azaspiro[4.5]decan-10-yl)methyl)-3-methylpyrazin-2(1H)-one]	5 to 50
C[C@@H]1CN(CC2(O)CCN(C(=O)[C@H](C)CC(F)(F)F)CC23CCCC3)C(=O)CO1 (stereo partly drawn) [Example 94, (6R)-4-((10-Hydroxy-7-((R)-4,4,4-trifluoro-2-methylbutanoyl)-7-azaspiro[4.5]decan-10-yl)methyl)-6-methylmorpholin-3-one]	50 to 250
C[C@H](CC(F)(F)F)C(=O)N1CCC(O)(CN2CC(C3CC3)OCC2=O)C2(CCCC2)C1 (stereo partly drawn) [Example 95, 6-Cyclopropyl-4-((10-hydroxy-7-((R)-4,4,4-trifluoro-2-methylbutanoyl)-7-azaspiro[4.5]decan-10-yl)methyl)morpholin-3-one]	50 to 250
C[C@H](CC(F)(F)F)C(=O)N1CCC(O)(CN2C(=O)COCC23CC3)C2(CCCC2)C1 (stereo partly drawn) [Example 96, 4-((10-Hydroxy-7-((R)-4,4,4-trifluoro-2-methylbutanoyl)-7-azaspiro[4.5]decan-10-yl)methyl)-7-oxa-4-azaspiro[2.5]octan-5-one]	50 to 250

The next lines start with the values.

IC50 [µM]	SMILES
< 0.5	C[C@H](CC1CCCCC1)C(=O)N1CCC(O)(Cn2cc(S(C)(=N)=O)c(-c3ccccc3)cc2=O)C2(CCCC2)C1 (stereo partly drawn) [Example 74, 1-((7-((R)-3-Cyclohexyl-2-methylpropanoyl)-10-hydroxy-7-azaspiro[4.5]decan-10-yl)methyl)-5-(S-methylsulfonimidoyl)-4-phenylpyridin-2(1H)-one]
< 0.5	C[C@H](CC(F)(F)F)C(=O)N1CCC(O)(Cn2cc(N=S(C)(C)=O)c(-c3ccccc3)cc2=O)C2(CCCC2)C1 (stereo partly drawn) [Example 75, 5-((Dimethyl(oxo)-λ^6-sulfaneylidene)amino)-1-((10-hydroxy-7-((R)-4,4,4-trifluoro-2-methylbutanoyl)-7-azaspiro[4.5]decan-10-yl)methyl)-4-phenylpyridin-2(1H)-one]
< 0.5	CSc1cn(CC2(O)CCN(C(=O)[C@H](C)CC3CCCCC3)CC23CCCC3)c(=O)cc1Cl (stereo partly drawn) [Example 76, 4-Chloro-1-((7-((R)-3-cyclohexyl-2-methylpropanoyl)-10-hydroxy-7-azaspiro[4.5]decan-10-yl)methyl)-5-(methylthio)pyridin-2(1H)-one]
< 0.5	C[C@H](CC1CCCCC1)C(=O)N1CCC(O)(Cn2cc(S(C)(=O)=O)c(Cl)cc2=O)C2(CCCC2)C1 (stereo partly drawn) [Example 77, 4-Chloro-1-((7-((R)-3-cyclohexyl-2-methylpropanoyl)-10-hydroxy-7-azaspiro[4.5]decan-10-yl)methyl)-5-(methylsulfonyl)pyridin-2(1H)-one]
< 0.5	CSc1cn(CC2(O)CCN(C(=O)[C@H](C)CC3CCCCC3)CC23CCCC3)c(=O)cc1-c1ccccc1 (stereo partly drawn) [Example 78, 1-((7-((R)-3-Cyclohexyl-2-methylpropanoyl)-10-hydroxy-7-azaspiro[4.5]decan-10-yl)methyl)-5-(methylthio)-4-phenylpyridin-2(1H)-one]
< 0.5	C[C@H](CC1CCCCC1)C(=O)N1CCC(O)(Cn2cc([S+](C)[O-])c(-c3ccccc3)cc2=O)C2(CCCC2)C1 (stereo partly drawn) [Example 79, 1-((7-((R)-3-Cyclohexyl-2-methylpropanoyl)-10-hydroxy-7-azaspiro[4.5]decan-10-yl)methyl)-5-(methylsulfinyl)-4-phenylpyridin-2(1H)-one]
< 0.5	C[C@H](CC1CCCCC1)C(=O)N1CCC(O)(Cn2cc(S(C)(=O)=O)c(-c3ccccc3)cc2=O)C2(CCCC2)C1 (stereo partly drawn) [Example 80, 1-((7-((R)-3-Cyclohexyl-2-methylpropanoyl)-10-hydroxy-7-azaspiro[4.5]decan-10-yl)methyl)-5-(methylsulfonyl)-4-phenylpyridin-2(1H)-one]
< 0.5	CN(C)C(=O)c1cn(CC2(O)CCN(C(=O)N(C)CC3CCCCC3)CC23CCCC3)c(=O)cc1-c1ccccc1 (centres unmarked) [Example 82, N-(Cyclohexylmethyl)-10-((5-(dimethylcarbamoyl)-2-oxo-4-phenylpyridin-1(2H)-yl)methyl)-10-hydroxy-N-methyl-7-azaspiro[4.5]decane-7-carboxamide]
5 to 50	CC(C)COC(=O)N1CCC(O)(Cn2cc(C(=O)N(C)C)c(-c3ccccc3)cc2=O)C2(CCCC2)C1 (centres unmarked) [Example 84, Isobutyl 10-((5-(dimethylcarbamoyl)-2-oxo-4-phenylpyridin-1(2H)-yl)methyl)-10-hydroxy-7-azaspiro[4.5]decane-7-carboxylate]
5 to 50	CN(C)C(=O)c1cn(CC2(O)CCN(C(=O)N(C)C)CC23CCCC3)c(=O)cc1-c1ccccc1 (centres unmarked) [Example 86, 10-((5-(Dimethylcarbamoyl)-2-oxo-4-phenylpyridin-1(2H)-yl)methyl)-10-hydroxy-N,N-dimethyl-7-azaspiro[4.5]decane-7-carboxamide]
< 0.5	CN(C)C(=O)c1cn(CC2(O)CCN(C(=O)N(C)Cc3ccccc3)CC23CCCC3)c(=O)cc1-c1ccccc1 (centres unmarked) [Example 87, N-Benzyl-10-((5-(dimethylcarbamoyl)-2-oxo-4-phenylpyridin-1(2H)-yl)methyl)-10-hydroxy-N-methyl-7-azaspiro[4.5]decane-7-carboxamide]
< 0.5	CN(C)C(=O)c1cn(CC2(O)CCN(C(=O)N3CCC(C(F)(F)F)C3)CC23CCCC3)c(=O)cc1-c1ccccc1 (centres unmarked) [Example 88, 1-((10-Hydroxy-7-(3-(trifluoromethyl)pyrrolidine-1-carbonyl)-7-azaspiro[4.5]decan-10-yl)methyl)-N,N-dimethyl-6-oxo-4-phenyl-1,6-dihydropyridine-3-carboxamide]
5 to 50	CN(C)C(=O)c1cn(CC2(O)CCN(C(=O)N(C)C3CCCCC3)CC23CCCC3)c(=O)cc1-c1ccccc1 (centres unmarked) [Example 89, N-Cyclohexyl-10-((5-(dimethylcarbamoyl)-2-oxo-4-phenylpyridin-1(2H)-yl)methyl)-10-hydroxy-N-methyl-7-azaspiro[4.5]decane-7-carboxamide]
